Consider 7 compounds from ChEMBL document CHEMBL1201862, “PubChem BioAssay data set” (2004).

A short description of experiment [1]: Luminescence-based cell-based high throughput dose response assay to identify activators of the DAF-12 from the parasite S. stercoralis (ssDAF-12). Type of experiment: functional.
The nature of experiment [2]: cells.
The target of experiment [3] is T1, Oxysterols receptor LXR-beta (Homo sapiens, UniProt P55055).
T1 sequence (P55055 whole entry): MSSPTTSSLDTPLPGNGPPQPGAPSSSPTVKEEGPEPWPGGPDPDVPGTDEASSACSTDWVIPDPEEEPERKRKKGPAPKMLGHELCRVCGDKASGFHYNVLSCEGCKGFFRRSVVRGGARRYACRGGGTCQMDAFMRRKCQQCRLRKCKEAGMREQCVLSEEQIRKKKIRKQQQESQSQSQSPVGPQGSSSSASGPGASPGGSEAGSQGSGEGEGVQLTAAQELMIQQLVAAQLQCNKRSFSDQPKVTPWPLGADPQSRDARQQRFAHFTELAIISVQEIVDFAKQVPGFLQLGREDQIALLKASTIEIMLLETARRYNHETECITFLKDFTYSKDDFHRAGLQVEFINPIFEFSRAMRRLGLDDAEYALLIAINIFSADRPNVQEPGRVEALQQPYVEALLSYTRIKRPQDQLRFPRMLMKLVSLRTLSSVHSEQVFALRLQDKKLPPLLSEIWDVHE
In words: LXR agonists, Gal4 luciferase reporter, dose response, counter-screen for ssDAF-12 agonist project, cell-based, luminescence, HEK293, S. stercoralis campaign (AID 720737). The note with it: read-out: IC50 (the source's name). Type of experiment: functional.

Experiment [4] concerns the target T1, Oxysterols receptor LXR-beta. Type of experiment: functional, cell-based.
The target of experiment [5] is T2, Corticotropin-releasing factor receptor 2/Corticotropin-releasing factor-binding protein (Homo sapiens, UniProt P24387+Q13324).
T2 sequence (Q13324 whole entry): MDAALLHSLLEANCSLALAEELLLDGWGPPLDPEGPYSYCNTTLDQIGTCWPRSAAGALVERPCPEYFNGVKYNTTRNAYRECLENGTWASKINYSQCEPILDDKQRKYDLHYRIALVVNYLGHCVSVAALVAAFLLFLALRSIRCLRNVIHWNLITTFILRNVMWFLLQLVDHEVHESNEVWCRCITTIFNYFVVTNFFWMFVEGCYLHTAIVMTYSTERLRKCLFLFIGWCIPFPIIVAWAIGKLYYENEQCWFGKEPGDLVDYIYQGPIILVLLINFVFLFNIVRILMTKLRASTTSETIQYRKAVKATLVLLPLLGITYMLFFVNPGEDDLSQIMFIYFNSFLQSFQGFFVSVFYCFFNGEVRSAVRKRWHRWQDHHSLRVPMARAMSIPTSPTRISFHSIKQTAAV
T2 sequence (P24387 whole entry): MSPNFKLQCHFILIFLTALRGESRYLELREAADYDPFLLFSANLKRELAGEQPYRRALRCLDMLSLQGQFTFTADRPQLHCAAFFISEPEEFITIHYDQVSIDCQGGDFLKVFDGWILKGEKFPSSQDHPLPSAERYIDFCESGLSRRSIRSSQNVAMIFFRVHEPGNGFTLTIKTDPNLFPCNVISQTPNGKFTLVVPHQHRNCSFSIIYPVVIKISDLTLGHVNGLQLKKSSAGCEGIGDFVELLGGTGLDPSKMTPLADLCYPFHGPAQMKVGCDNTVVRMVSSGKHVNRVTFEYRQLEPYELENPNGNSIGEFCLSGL
The experiment is described as follows: activators of CRF receptor 2 with binding protein – uHTS hits, confirmation (AID 602473). The note with it: read-out: EC50_Mean. Type of experiment: functional.

The target of experiment [6] is Kallikrein-7 (Homo sapiens, UniProt P49862). In words: Fluorescence Intensity-based biochemical primary high throughput dose response assay to identify activators of kallikrein-7 (K7) zymogen.
Kallikrein-7, sequence (P49862 whole entry): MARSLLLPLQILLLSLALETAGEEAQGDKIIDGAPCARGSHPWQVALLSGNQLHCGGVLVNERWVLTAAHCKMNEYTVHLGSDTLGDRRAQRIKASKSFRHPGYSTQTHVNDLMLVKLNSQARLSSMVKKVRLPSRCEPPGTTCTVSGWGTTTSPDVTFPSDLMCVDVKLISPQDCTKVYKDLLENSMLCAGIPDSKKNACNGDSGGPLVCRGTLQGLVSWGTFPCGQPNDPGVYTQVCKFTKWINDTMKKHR
For experiment [7], the target named is T2, Corticotropin-releasing factor receptor 2/Corticotropin-releasing factor-binding protein. In words: Dose Response confirmation of uHTS hits for small molecule antagonists of the CRF-binding protein and CRF-R2 receptor complex. The note with it: read-out: IC50_Mean. The experiment is classed as functional.
Experiment [8] addresses T3, Fibrinogen beta chain (Homo sapiens, UniProt P02675). The experiment is described as follows: Fluorescence polarization-based biochemical high throughput dose response assay to identify inhibitors that disrupt the binding of a cyclic peptide (Tn7) to the fibrin proteolytic product D-Dimer and fragment E complex [DD(E )]. A general note: Polarisation of emitted light reports the rotation of a fluorescent probe.

For experiment [9], the target named is T4, Sentrin-specific protease 8 (Homo sapiens, UniProt Q96LD8).
T4 sequence (Q96LD8 whole entry): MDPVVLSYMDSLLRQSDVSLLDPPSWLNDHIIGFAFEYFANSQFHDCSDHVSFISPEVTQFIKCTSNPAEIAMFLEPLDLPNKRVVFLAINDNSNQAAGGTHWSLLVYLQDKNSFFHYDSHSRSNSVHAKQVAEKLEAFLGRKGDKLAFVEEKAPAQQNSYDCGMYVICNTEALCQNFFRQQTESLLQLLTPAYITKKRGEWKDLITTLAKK
Type of experiment: functional.

A short description of experiment [10]: Vero E6 cell cytotoxicity, dose response, cytotoxicity control for non-replicating M. tuberculosis project, secondary assay (AID 492998). Type of experiment: functional, VeroE6. The note with it: Vero C1008.
The target of experiment [11] is Nonstructural protein 1 (Influenza A virus, UniProt Q194T2). Type of experiment: functional, Influenza A virus (A/California/07/2009(H1N1)).
Nonstructural protein 1, sequence (Q194T2 whole entry): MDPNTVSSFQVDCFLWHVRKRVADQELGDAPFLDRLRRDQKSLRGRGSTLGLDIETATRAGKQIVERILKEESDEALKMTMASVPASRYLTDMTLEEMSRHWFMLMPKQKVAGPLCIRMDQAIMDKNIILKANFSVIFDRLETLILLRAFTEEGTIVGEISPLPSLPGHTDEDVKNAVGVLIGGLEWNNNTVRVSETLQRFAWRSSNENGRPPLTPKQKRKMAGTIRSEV
For experiment [12], the target named is T4, Sentrin-specific protease 8. The experiment is classed as functional. The source holds these as a separate data set.
Experiment [13] is described as follows: cytotoxicity in HPDE-C7 cells, cell-based, fluorescence, HTS (AID 430). Type of experiment: functional. Conditions: Homo sapiens.
The nature of experiment [14]: growth suppression of beta-catenin-knockout colon cells, dose response, cell-based, HCT116, human colon tumor (AID 1045).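 Note: HCT116 colon tumor cells with beta catenin knocked out; cells exposed to compound for 60 hours.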 Type of experiment: functional.
The nature of experiment [15]: THP-1 cell cytotoxicity, dose response, cytotoxicity control for non-replicating M. tuberculosis project (AID 489025). Type of experiment: functional.
Experiment [16] in a line: Luminescence Cell-Based Dose Confirmation HTS to Identify Activators of 5'UTR Stem-Loop Driven Alpha-Synuclein mRNA Translation in H4 Neuroglioblastoma Cells. [Related pubchem assays: 1829 (Project Summary), 1814 (Primary HTS)]. Type of experiment: functional.
Experiment [17] in a line: cytotoxicity in KRAS-transformed pancreatic duct cells, primary screen, cell-based, fluorescence, HTS (AID 431).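 Note: cell line used: HPDE-C7K.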 Type of experiment: functional. Conditions: Homo sapiens.
The target in experiment [18] is T3, Fibrinogen beta chain. In words: Fluorescence polarization-based biochemical high throughput dose response assay to identify inhibitors that disrupt the binding of a cyclic peptide (Tn6) to the fibrin proteolytic product D-Dimer and fragment E complex [DD(E )].
The nature of experiment [19]: cells. The experiment is classed as functional.
Experiment [20] is described as follows: growth suppression of PTEN-null colon cells, dose response, cell-based, HCT116 PTEN knockout (AID 1047).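 Note: HCT116 colon tumor cells with PTEN knocked out; cells exposed to compound for 60 hours before readout; potency for loss of cell viability measured by luminescence.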 Type of experiment: functional.
Experiment [21] concerns H4. The experiment is described as follows: Luminescence Cell-Based Dose Response HTS to Identify Activators of 5'UTR Stem-Loop Driven Prion Protein mRNA Translation in H4 Neuroglioblastoma Cells. [Related pubchem assays: 1829 (Project Summary), 1814 (Primary HTS)]. Type of experiment: functional. Conditions: Homo sapiens.
Experiment [22] has as its target NAD-dependent protein deacylase sirtuin-5, mitochondrial (Homo sapiens, UniProt Q9NXA8). In words: SIRT5 desuccinylase inhibitors, dose response, biochemical, fluorescence imaging, cherry-pick, set 5 (AID 720591).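 Note: desuccinylation of succinyl peptide AMC substrate read as fluorescence after trypsin release; potency of inhibitors that lower fluorescence and may act on trypsin instead.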
The nature of experiment [23]: cytotoxicity in COV434 cells, dose response, cytotoxicity control for PAX8 inhibitor project, cell-based, plate reader, dry powder, SA7 (AID 743145). Type of experiment: functional.
Experiment [24] can be described thus: cytotoxicity dependent on PAX8, dose response, cell-based, plate reader, dry powder (AID 743049). Type of experiment: functional.
A short description of experiment [25]: PAX5 activity inhibitors, dose response, selectivity assay for PAX8 inhibitor project, cell-based, plate reader, dry powder samples (AID 743047).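 Note: HEK293 cells carrying a Pax5 driven CD19 promoter luciferase reporter; potency of inhibitors that lower reporter luminescence.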 Type of experiment: functional.
Experiment [26] can be described thus: cytotoxicity in COV362 ovarian cancer cells, dose response, cytotoxicity control for PAX8 inhibitor project, cell-based, plate reader, dry powder, SA12 (AID 743144). The experiment is classed as functional.
Experiment [27] is described as follows: NIH:OVCAR-3 ovarian cancer cell cytotoxicity, dose response, PAX8 inhibitor project, plate reader, dry powder samples (AID 743044). Type of experiment: functional, cell-based.
A short description of experiment [28]: PAX2 cell-based inhibition, dose response, selectivity assay for PAX8 inhibitor project, plate reader, dry powder samples (AID 743048).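 Note: HEK293 cells carrying a WT1 promoter luciferase reporter driven by expressed Pax2; potency is for inhibition of Pax2 driven reporter signal.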 The experiment is classed as functional.
A short description of experiment [29]: cytotoxicity in OV-90 ovarian cancer cells, dose response, PAX8 inhibitor project, cell-based, plate reader, dry powder, SA8 (AID 743149). The experiment is classed as functional.
A short description of experiment [30]: cytotoxicity in OVCAR4 cells, dose response, cytotoxicity control for PAX8 inhibitor project, cell-based, plate reader, dry powder, SA11 (AID 743150). The note with it: OVCAR-4. Type of experiment: functional.
Experiment [31] addresses Paired box protein Pax-8 (Homo sapiens, UniProt Q06710). The experiment is described as follows: inhibitors of PAX8-driven TPO luciferase reporter, dose response, RMG-I cells, cherry-pick (AID 687027).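 Note: luciferase reporter driven by Pax8 target thyroperoxidase promoter measured by SteadyGlo luminescence.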 Type of experiment: functional, cell-based. In general terms: Reporter assays use an easily measured gene product as a stand-in for the process of interest.
Experiment [32] in a line: Late-stage results from the probe development effort to identify antagonists of arginine vasopressin receptor 1a (AVPR1a): fluorescence-based cell-based dose response OXTR inhibition counterscreen assay. Type of experiment: functional. On the technique in general: A counterscreen serves to expose hits that act by an unwanted route or on another target.
Experiment [33] has as its target Vasopressin V1b receptor (Homo sapiens, UniProt P47901). The experiment is described as follows: Late-stage results from the probe development effort to identify antagonists of arginine vasopressin receptor 1a (AVPR1a): fluorescence-based cell-based dose response AVPR1b inhibition counterscreen assay. The experiment is classed as functional.
Experiment [34] in a line: Late-stage results from the probe development effort to identify antagonists of arginine vasopressin receptor 1a (AVPR1a): fluorescence-based cell-based dose response AVPR1a inhibition assay. Type of experiment: functional.
For experiment [35], the target named is Vasopressin V2 receptor (Homo sapiens, UniProt P30518). The experiment is described as follows: Late-stage results from the probe development effort to identify antagonists of arginine vasopressin receptor 1a (AVPR1a): fluorescence-based cell-based dose response AVPR2 inhibition counterscreen assay. The experiment is classed as functional.
Vasopressin V2 receptor, sequence (P30518 whole entry): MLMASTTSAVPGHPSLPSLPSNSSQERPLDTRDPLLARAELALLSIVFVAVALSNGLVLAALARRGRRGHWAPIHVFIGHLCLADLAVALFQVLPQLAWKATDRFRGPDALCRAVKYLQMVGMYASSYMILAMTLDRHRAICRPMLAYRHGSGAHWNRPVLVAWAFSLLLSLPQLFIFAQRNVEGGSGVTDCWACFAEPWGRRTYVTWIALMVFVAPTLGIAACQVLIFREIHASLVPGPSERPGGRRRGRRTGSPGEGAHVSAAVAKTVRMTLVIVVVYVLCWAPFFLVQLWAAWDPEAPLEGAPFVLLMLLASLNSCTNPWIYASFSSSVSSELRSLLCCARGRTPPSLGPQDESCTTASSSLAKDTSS
Experiment [36] can be described thus: HepG2 hepatoma cell cytotoxicity, dose response, cytotoxicity control, CellTiter-Glo luminescence, dry powder, set 3 (AID 720594). Type of experiment: functional, cell-based.
The nature of experiment [37]: AlphaScreen signal interference by compounds, dose response, artefact control for ARNT/TACC3 disruptor project, biochemical, dual-tagged ARNT, dry powder (AID 720564).

Calls of active or inactive are those of the source. A value given as a limit tells only on which side of the number the result lay.

T3 sequence (P02675 whole entry, the tested form may be a part): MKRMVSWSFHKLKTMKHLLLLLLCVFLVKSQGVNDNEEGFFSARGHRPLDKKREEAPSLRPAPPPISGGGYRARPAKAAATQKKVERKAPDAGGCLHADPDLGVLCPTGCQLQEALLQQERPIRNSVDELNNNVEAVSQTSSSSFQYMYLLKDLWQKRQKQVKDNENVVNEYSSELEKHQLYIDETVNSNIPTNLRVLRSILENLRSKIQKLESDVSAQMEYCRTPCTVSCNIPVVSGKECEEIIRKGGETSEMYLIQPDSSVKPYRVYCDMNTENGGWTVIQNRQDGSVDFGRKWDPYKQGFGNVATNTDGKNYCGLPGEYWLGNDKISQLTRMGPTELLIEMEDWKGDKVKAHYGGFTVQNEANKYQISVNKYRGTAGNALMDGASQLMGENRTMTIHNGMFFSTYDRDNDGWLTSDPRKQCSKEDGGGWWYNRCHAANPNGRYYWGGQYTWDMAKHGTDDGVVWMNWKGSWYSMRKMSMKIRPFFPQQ
Paired box protein Pax-8, sequence (Q06710 whole entry): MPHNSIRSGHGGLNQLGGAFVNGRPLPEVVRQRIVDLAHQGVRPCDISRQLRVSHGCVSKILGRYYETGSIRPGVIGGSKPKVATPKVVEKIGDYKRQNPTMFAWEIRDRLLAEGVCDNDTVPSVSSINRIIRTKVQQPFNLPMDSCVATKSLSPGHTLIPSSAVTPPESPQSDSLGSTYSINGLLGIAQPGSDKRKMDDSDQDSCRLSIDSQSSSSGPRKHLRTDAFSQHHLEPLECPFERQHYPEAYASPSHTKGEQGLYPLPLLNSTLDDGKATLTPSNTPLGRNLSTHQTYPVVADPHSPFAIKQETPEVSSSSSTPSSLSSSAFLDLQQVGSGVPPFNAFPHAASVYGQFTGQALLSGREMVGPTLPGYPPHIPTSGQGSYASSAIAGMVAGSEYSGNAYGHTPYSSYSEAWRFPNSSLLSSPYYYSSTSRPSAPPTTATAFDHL
NAD-dependent protein deacylase sirtuin-5, mitochondrial, sequence (Q9NXA8 whole entry): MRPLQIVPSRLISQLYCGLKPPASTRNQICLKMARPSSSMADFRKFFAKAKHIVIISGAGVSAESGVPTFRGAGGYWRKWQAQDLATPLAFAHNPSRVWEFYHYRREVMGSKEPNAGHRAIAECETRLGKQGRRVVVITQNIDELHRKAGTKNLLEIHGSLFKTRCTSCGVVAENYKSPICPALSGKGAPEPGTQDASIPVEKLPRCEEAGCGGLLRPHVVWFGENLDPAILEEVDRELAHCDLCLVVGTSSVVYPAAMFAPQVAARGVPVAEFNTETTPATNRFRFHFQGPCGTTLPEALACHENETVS
Vasopressin V1b receptor, sequence (P47901 whole entry): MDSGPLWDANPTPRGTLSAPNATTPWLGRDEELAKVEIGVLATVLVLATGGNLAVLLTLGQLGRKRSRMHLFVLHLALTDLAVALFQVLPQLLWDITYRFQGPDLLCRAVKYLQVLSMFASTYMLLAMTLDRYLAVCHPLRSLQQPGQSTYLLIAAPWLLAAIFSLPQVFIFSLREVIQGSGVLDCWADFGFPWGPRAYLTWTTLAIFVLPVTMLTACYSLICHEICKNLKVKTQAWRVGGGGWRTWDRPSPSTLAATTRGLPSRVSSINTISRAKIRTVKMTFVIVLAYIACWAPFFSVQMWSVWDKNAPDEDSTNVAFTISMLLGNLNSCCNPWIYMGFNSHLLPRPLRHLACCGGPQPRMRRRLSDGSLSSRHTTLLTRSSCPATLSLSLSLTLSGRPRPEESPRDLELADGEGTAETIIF

In the case of `COc1ccc(-c2cc(-c3ccccc3O)[nH]n2)cc1`, the IC50 in experiment [1] was > 67.6 µM (inactive). The EC50 in experiment [2], in experiment [3] and in experiment [4] was > 67.6 µM (inactive) each time.

As for `CCCCOC(=O)Oc1ccc2c(=O)c(Oc3cccc(C)c3)coc2c1`, the EC50 in experiment [5] was > 53 µM (inactive); in experiment [6], 6.86 µM (active). The IC50 in experiment [7] was > 47.1 µM (inactive).

As a reminder, the CC50 is the concentration giving 50% cytotoxicity. With `N#CC(C#N)=c1ccc2c(c1)NC1(CCCCC1)N=2`, the IC50 is > 83.3 µM (inactive) in experiment [8]; 3.45 µM (active) in [9]; 15.6 µM (active) in experiment [11]; > 100 µM (inactive) in experiment [12]; 11.3 µM (inactive) in [18]; 10.7 µM (active) in experiment [19]. The cytotoxic concentration (CC50) in [10] is 15.4 µM (active); in experiment [15], 6.67 µM (active). Besides, the EC50 in experiment [13] is 6.5 µM (active); in [14], 1.23 µM (active); in experiment [16], 1.55 µM (active); in [17], 9.91 µM (active); in [20] it was 1.37 µM (active); in [21], 5.95 µM (active).

The AC50 is the concentration at which the activity in the assay is half-maximal. For `C=CCN(c1ccccc1)S(=O)(=O)c1cccc(C(=O)Nc2ccncc2)c1`, in experiment [22], the AC50 is > 30 µM (inactive).

For `COc1ccc(NC(=O)Nc2ccc3c(c2)C(=O)N([C@H](C)CO)C[C@H](C)[C@H](CN(C)Cc2ccc(C(F)(F)F)cc2)OCCCC[C@H](C)O3)cc1`, the AC50 in experiment [23] was 27.7 µM (active); in experiment [24], 22.4 µM (active); in [25], 22.9 µM (active); in experiment [26] it was 26 µM (active); in experiment [27], 24 µM (active); in experiment [28], 18.4 µM (active). The AC50 in experiment [29] was 23.6 µM (active); in experiment [30], 20.4 µM (active); in experiment [31], 9.32 µM (active).

For the compound `Cc1cccnc1N1CCN(C(=O)N(CC2CC2)c2ccc(Cl)cc2)CC1`, the IC50 was > 50 µM (inactive) in experiment [32], > 50 µM (inactive) in experiment [33], 8.4 nM (active) in [34] and > 50 µM (inactive) in experiment [35].

With `CC1CCN(S(=O)(=O)c2ccc(C(=O)Nc3nnc(-c4cccs4)o3)cc2)CC1`, the AC50 in experiment [36] was > 52 µM (inactive); in experiment [37] it was 116 µM (active).
